# In patent US10286084B2, “Compositions for the inactivation of virus replication and methods of making and using the same” (priority 2014, dated 2019):
# Legend:
# [1] = tested on: p53 and p21 expression; experiment: Western blot of transfected HeLa cells for p53 and p21; type: cell-based, human; conditions: Spy Cas9, 48 h post-transfection
# Description: (§1) Phenotypic analysis of RGNs in HeLa was performed using the Fugene6 transfection reagent as per the manufacturer's protocol. Cells were plated at 2.5×10^5 cells per well in 6-well plates and transfected with a 3 to 1 ratio of RGN expression vector to pLCE (a GFP-expressing plasmid included to determine transfection efficiency). SiHa cells were transfected with HPV-16-specific RGN expression vectors using Lipofectamine3000 (Clontech) using the manufacturer's protocol. Cells were then harvested and lysed in SDS/β-mercaptoethanol protein lysis buffer 48 hours post transfection. Lysates were subjected to electrophoresis on 4-20% SDS-polyacrylamide gels (Bio-Rad) and transferred to nitrocellulose membranes. The membranes were then probed in 5% milk-PBS-T (PBS, 0.1% Tween 20, 0.5% bovine serum albumin) with the following antibodies: anti-Flag (Sigma F1804), a rabbit Rev polyclonal antiserum (Malim et al., 1989), anti-β-actin (Santa Cruz S.C.-47778), anti-p53 (Santa Cruz S.C.-126), anti-p21 (Santa Cruz S.C.-397), and anti-Rb (BD Pharmigen 554136). The membranes were washed in PBS-T, incubated with a species-specific secondary antibody, and then washed again in PBS-T. The membranes were incubated with Western Bright Sirius Western blot detection kit (Advansta) and signals captured using GeneSnap and quantified using GeneTools (Syngene). […]
# [2] = tested on: HPV-18 E6 gene; experiment: Mutagenesis spectra: PCR, cloning and sequencing of HeLa genomic DNA; type: cell-based; conditions: Spy Cas9, 48 h post-transfection, of 234 DNA sequence reads
# Description: (§2) HeLa cells were plated at 2.5×10^5 cells per well in 6-well plates and transfected using Fugene6 with a 3 to 1 ratio of RGN expression vector to pL/CMV/eGFP (pLCE) (Seedorf et al., 1987), which expresses eGFP, to determine transfection efficiency. Genomic DNA was extracted 48 hours post-transfection using a DNeasy kit (Qiagen) following the manufacturer's protocol. The genomic region surrounding the viral target sites was PCR amplified using GoTaq cocktail (Promega, #9PIM300) and then purified. PCR products were then denatured and reannealed to enable DNA heteroduplex formation: 95° C. for 10 min, 95° C. to 85° C. ramping at −1° C./sec, 85° C. to 25° C. at −0.25° C./sec, and 25° C. hold for 1 minute. After reannealing, products were treated with SURVEYOR nuclease and SURVEYOR enhancer S (Transgenomics) following the manufacturer's protocol, and analyzed on a 2% agarose gel. To determine the sequence spectra of the mutations introduced by HPV-18 E6- and E7-specific sgRNAs, we designed primers with unique restriction enzyme sites that bound sequences flanking the predicted RGN cleavage locations. The mutagenized HeLa genomic DNA was PCR amplified at 48 hours after transfection, cloned, sequenced, and aligned to the HeLa genome.
# (§3) We next asked if we could inactivate the endogenous HPV-18 E6 and E7 genes integrated into the HeLa cell genome. As all four sgRNAs appeared to function equivalently, we focused our subsequent research on E6 sgRNA1 and E7 sgRNA1. To confirm these sgRNAs were indeed inducing the expected DNA cleavage, we used the SURVEYOR assay to determine if we could detect RGN-induced indels at the predicted Cas9 cleavage site. For this purpose, we transfected HeLa cells with a px330-based vector encoding Spy Cas9 (Cong et al., 2013) and an E6- or E7-specific sgRNA. At 48 hours post-transfection, we isolated the HeLa genomic DNA and PCR-amplified the regions of the HPV-18 genome containing either the E6 or E7 target site for Cas9. The resultant PCR fragment was then isolated, denatured and then re-annealed to produce a population of DNA heteroduplexes that were digested using SURVEYOR nuclease, which is predicted to cleave at any sites of Cas9-induced mutagenesis. […] To further characterize these mutations, we cloned the same PCR fragments derived from the HPV-18 E6 or E7 gene and then performed DNA sequencing across the predicted cleavage site located 3 bp 5′ to the Cas9 PAM sequence (Mali et al., 2013). Analysis of the HPV-18 E6 gene gave 234 DNA sequence reads, of which 19 bore an assortment of different deletion mutations while 34 contained the same insertion mutation of a single “A” residue 3 bp 5′ to the Spy Cas9 PAM motif. The remaining 181 samples analyzed contained the wildtype E6 sequence. […]
# [3] = tested on: p53 effector protein p21; experiment: Western blot of transfected SiHa cells for p21; type: cell-based, human; conditions: SiHa (HPV-16) cells, Spy Cas9
# Description: as §1, with “The membranes were then probed in 5% milk-PBS-T (PBS, 0.1% Tween 20, 0.5% bovine serum albumin) with the following antibodies: anti-Flag (Sigma F1804), a rabbit Rev polyclonal antiserum (Malim et al., 1989), anti-β-actin (Santa Cruz S.C.-47778), anti-p53 (Santa Cruz S.C.-126), anti-p21 (Santa Cruz S.C.-397), and anti-Rb (BD Pharmigen 554136).” left out
# All the work described thus far used the HPV-18 transformed cervical carcinoma cell line HeLa. To extend these studies, we also analyzed the human SiHa cervical carcinoma cell line, which is transformed by HPV-16 (Seedorf et al., 1987), using sgRNAs specific for HPV-16 E6 and E7, which differ in sequence from HPV-18 E6 and E7. […]
# [4] = tested on: HPV-18 E7 gene; experiment: Mutagenesis spectra: PCR, cloning and sequencing of HeLa genomic DNA; type: cell-based; conditions: Spy Cas9, 48 h post-transfection, of 232 DNA sequences
# Description: as §2, §3
Substance,p53 and p21 expression [1],DNA sequence reads bearing deletion mutations [2],DNA sequence reads with insertion of a single A residue 3 bp 5′ to the PAM [2],p21 expression [3],DNA sequences with deletion mutations adjacent to the predicted cleavage site [4],DNA sequences with insertions of 1 or 2 bp [4]
"E6 sgRNA1: Spy Cas9 sgRNA for HPV-18 E6, GGCGCTTTGAGGATCCAACA; SEQ ID NO: 8 (expressed or natural sequence)",specific induction of both p53 and p21 expression,19,34,failed to induce p21 expression,–,–
"E7 sgRNA1: Spy Cas9 sgRNA for HPV-18 E7, GGAGCAATTAAGCGACTCAG; SEQ ID NO: 10 (expressed or natural sequence)",–,–,–,–,6,46
